Read-outs that look alike come from different tables or passages of the source.
Legend:
[1] = test system: Aβ40 in conditioned medium of cells stably expressing Amyloid Precursor Protein (APP); experiment: In vitro BACE cell-based assay (HEK cell assay, Aβ40 sandwich ELISA); details: Homo sapiens, HEK293
Description: In Vitro BACE Cell-Based Assay
The cell-based assay measures inhibition or reduction of Aβ40 in conditioned medium of test compound treated cells expressing amyloid precursor protein.
Cells stably expressing Amyloid Precursor Protein (APP) were plated at a density of 40K cells/well in 96 well plates (Costar). The cells were cultivated for 24 hours at 37° C. and 5% CO2 in DMEM supplemented with 10% FBS. The test compounds were then added to cells in 10-point dose response concentrations with the starting concentration being either 100 μM or 10 μM. The compounds were diluted from stock solutions in DMSO and the final DMSO concentration of the test compounds on cells was 0.1%. After 24 h of incubation with the test compounds the supernatant conditioned media was collected and the Aβ 40 levels were determined using a sandwich ELISA. The IC50 of the compound was calculated from the percent of control or percent inhibition of Aβ 40 as a function of the concentration of the test compound.
The sandwich ELISA to detect Aβ 40 was performed in 96 well microtiter plates, which were pre-treated with goat anti-rabbit IgG (Pierce). The capture and detecting antibody pair that were used to detect Aβ 40 from cell supernatants were affinity purified pAb40 (Biosource) and biotinylated 6E10 (Signet Labs Inc.), respectively. The optimal concentration for the pAb40 antibody was 3 μg/ml in Superblock/TBS (Pierce) that was supplemented with 0.05% Tween 20 (Sigma). Optimal concentration for the detection antibody 6E10-biotinylated was 0.5 μg/ml in Superblock/TBS (Pierce) that had been supplemented with 2% normal goat serum and 2% normal mouse serum.
Cellular supernatants were incubated with the capture antibody for 3 h at 4° C., followed by 3 wash steps in TBS-tween (0.05%). The detecting antibody incubation was for 2 h at 4° C., again followed by the wash steps as described previously. The final readout of the ELISA is Time-Resolved Fluorescence (counts per minute) using Delfia reagents Streptavidin-Europium and Enhancement solutions (Perkin Elmer) and the Victor 2 multilabel counter (Perkin Elmer).

Cathepsin D (Cat D) = target: T1, Cathepsin D (Cat D) (Homo sapiens, UniProt P07339); experiment: In vitro enzymatic Cathepsin D (Cat D) FRET assay; assay type: biochemical; details: read-out: CatD IC50
T1 construct: made in house; host or cells: CHO cells
Description: In Vitro Enzymatic Cathepsin D (Cat D) FRET (Fluorescence Resonance Energy Transfer) Assay
Recombinant Cat D was expressed in CHO cells. The assay buffer for CathepsinD is 0.05 M citrate pH 3.5, 10% DMSO final, 5 mM CHAPS. The Cat D enzyme (9 nM) is pre-incubated for one hour with inhibitors, typically in about 1 uL of DMSO according to a serial dilution, is added thereto. The assays are effectively started by the addition of different FRET substrates (20 nM for Cat D) and the combination is incubated for one hour. The FRET assay is terminated with by addition of Tris buffer, which raises the pH to neutrality, and the fluorescence is determined. The FRET substrate is a peptide with commercially available fluorophore and quencher, on opposite sides of the BACE cleavage site. The Cat D substrate peptide sequence is based on sequence #1 of Table 1 from Gulnik et al. FEBS Letters v413 p 379-384 1997. Proteolytic cleavage of the FRET substrate releases quenching of fluorescence (Cat D excitation 500 nm and emission 580 nm). […]
Where available, the in-vitro Cat D FRET assay data for each of the Examples, conducted by the first procedure, is provided in Tables 1 and 3. For example, the compound of example 28 has a Cat D IC50 value of >400 uM.

BACE1 = BACE1 (Homo sapiens, UniProt P56817); experiment: In vitro enzymatic BACE FRET assay; assay type: biochemical
Description: In Vitro Enzymatic BACE FRET (Fluorescence Resonance Energy Transfer) Assay
Enzyme Assay Data in the Example Table I
The assay buffer used in this screen is 0.05 M acetate, pH 4.2, 10% DMSO final, 100 uM genapol (which is a nonionic detergent, below its Critical Micelle Concentration). The Beta Secretase enzyme (0.2 nM) is pre-incubated for one hour with inhibitors, typically in about 1 uL of DMSO according to a serial dilution, are added thereto. This assay is effectively started by the addition of FRET substrate (50 nM) and the combination is incubated for one hour. The FRET assay is terminated with by addition of Tris buffer, which raises the pH to neutrality, and the fluorescence is determined. The FRET substrate is a peptide with commercially available fluorophore and quencher, on opposite sides of the BACE cleavage site. Proteolytic cleavage of the FRET substrate releases quenching of fluorescence (excitation 488 nm and […]).

[2] = Aβ40, 24 h incubation, read-out: HEK cell assay IC50
[3] = read-out: BACE1 FRET assay IC50
[4] = average IC50, read-out: BACE1 cell assay IC50
[5] = average IC50, read-out: BACE1 Enzyme assay IC50

T1 sequence (P07339 65-412, species assumed): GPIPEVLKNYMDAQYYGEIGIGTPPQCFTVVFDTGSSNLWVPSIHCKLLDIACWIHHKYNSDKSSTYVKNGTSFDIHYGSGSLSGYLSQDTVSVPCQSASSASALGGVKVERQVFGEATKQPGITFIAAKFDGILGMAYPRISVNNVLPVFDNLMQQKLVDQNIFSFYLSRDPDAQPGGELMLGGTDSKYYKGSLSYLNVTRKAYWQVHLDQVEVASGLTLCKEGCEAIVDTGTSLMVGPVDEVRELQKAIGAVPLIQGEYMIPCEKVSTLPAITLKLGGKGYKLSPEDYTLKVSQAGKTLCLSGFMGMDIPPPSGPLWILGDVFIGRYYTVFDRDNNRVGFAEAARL
Chain of BACE1 (P56817 46-501, species assumed): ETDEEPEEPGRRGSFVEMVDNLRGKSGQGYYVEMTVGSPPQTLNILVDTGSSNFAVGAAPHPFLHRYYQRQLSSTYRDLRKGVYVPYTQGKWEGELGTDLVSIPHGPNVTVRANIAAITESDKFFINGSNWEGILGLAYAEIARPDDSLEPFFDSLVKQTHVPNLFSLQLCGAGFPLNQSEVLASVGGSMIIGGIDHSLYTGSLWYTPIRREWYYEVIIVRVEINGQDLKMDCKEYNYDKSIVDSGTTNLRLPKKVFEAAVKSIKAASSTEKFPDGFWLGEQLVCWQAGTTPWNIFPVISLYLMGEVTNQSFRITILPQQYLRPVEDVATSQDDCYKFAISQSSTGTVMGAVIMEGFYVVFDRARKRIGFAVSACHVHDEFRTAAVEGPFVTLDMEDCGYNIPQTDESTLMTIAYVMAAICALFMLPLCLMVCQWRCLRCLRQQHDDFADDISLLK

Compound | IC50 [1, 2] [µM] | IC50 (Cathepsin D (Cat D)) [µM] | IC50 (BACE1; [3]) [µM] | IC50 [1, 4] [µM] | IC50 (Cathepsin D (Cat D); average IC50, first procedure) [µM] | IC50 (BACE1; [5]) [µM]
COc1cnc2c(Nc3ccc(F)c([C@@]4(C)N=C(N)[C@@]5(C)CC[C@@H]4S5(=O)=O)c3)ncc(F)c2c1 [Example 36, N-(3-((1S,2R,5R)-4-amino-2,5-dimethyl-8,8-dioxido-8-thia-3-azabicyclo[3.2.1]oct-3-en-2-yl)-4-fluorophenyl)-5-fluoro-3-methoxy-1,7-naphthyridin-8-amine] | 0.006 | 5490 | 0.002 | – | – | –
Cc1c(C(=O)Nc2ccc(F)c([C@@]3(C)N=C(N)[C@@]4(C)CC[C@@H]3S4(=O)=O)c2)nc2ccc(Cl)cn12 [Example 25, N-(3-((1S,2R,5R)-4-Amino-2,5-dimethyl-8,8-dioxido-8-thia-3-azabicyclo[3.2.1]oct-3-en-2-yl)-4-fluorophenyl)-6-chloro-3-methylimidazo[1,2-a]pyridine-2-carboxamide] | 0.004 | 318 | 0.021 | – | – | –
Cc1cc(Cl)cnc1C(=O)Nc1ccc(F)c([C@@]2(C)N=C(N)[C@H]3CC[C@@H]2S3(=O)=O)c1 [Example 33, N-(3-((1S,2R,5R)-4-amino-2-methyl-8,8-dioxido-8-thia-3-azabicyclo[3.2.1]oct-3-en-2-yl)-4-fluorophenyl)-5-chloro-3-methyl-2-pyridinecarboxamide] | > 15.6 | 1540 | 8.46 | – | – | –
C[C@]1(c2cc(Nc3nccc4nc(C(F)(F)F)cnc34)ccc2F)N=C(N)[C@@]2(C)CC[C@@H]1S2(=O)=O [Example 86, N-(3-((1S,2R,5R)-4-amino-2,5-dimethyl-8,8-dioxido-8-thia-3-azabicyclo[3.2.1]oct-3-en-2-yl)-4-fluorophenyl)-2-(trifluoromethyl)pyrido[3,4-b]pyrazin-5-amine] | – | – | – | 0.067 | > 44.4 | 0.023
Cc1cc(Cl)cnc1C(=O)Nc1ccc(F)c([C@@]2(C)N=C(N)[C@]3(C)CCC[C@@]2(F)S3(=O)=O)c1 [Example 8, N-(3-((1R,2R,5S)-4-Amino-1-fluoro-2,5-dimethyl-9,9-dioxido-9-thia-3-azabicyclo[3.3.1]non-3-en-2-yl)-4-fluorophenyl)-5-chloro-3-methylpicolinamide] | 0.113 | 22.7 | 0.004 | – | – | –
Cc1cc(OC(F)F)cnc1C(=O)Nc1ccc(F)c([C@@]2(C)N=C(N)[C@@]3(C)CCC[C@]2(C)S3(=O)=O)c1 [Example 13, N-(3-((1S,2R,5R)-4-Amino-1,2,5-trimethyl-9,9-dioxido-9-thia-3-azabicyclo[3.3.1]non-3-en-2-yl)-4-fluorophenyl)-5-(difluoromethoxy)-3-methylpicolinamide] | 0.006 | 8.64 | 0.013 | – | – | –
Cc1cc(C(F)(F)F)cnc1C(=O)Nc1ccc(F)c([C@@]2(CF)N=C(N)[C@]3(C)CC[C@H]2S3(=O)=O)c1 (single isomer, unassigned) [Example 116] | – | – | – | 0.047 | 255 | 0.044
Cc1cc(Cl)cnc1C(=O)Nc1ccc(F)c([C@@]2(C)N=C(N)[C@]3(C)CCC[C@@]2(C)S3(=O)=O)c1 [Example 12, N-(3-((1R,2R,5S)-4-Amino-1,2,5-trimethyl-9,9-dioxido-9-thia-3-azabicyclo[3.3.1]non-3-en-2-yl)-4-fluorophenyl)-5-chloro-3-methylpicolinamide] | 0.033 | 29.7 | 0.005 | – | – | –
Cc1cc(Cl)cnc1C(=O)Nc1ccc(F)c([C@@]2(C)N=C(N)[C@@H]3CCC[C@H]2S3(=O)=O)c1 [Example 17, N-(3-((1R,2R,5S)-4-Amino-2-methyl-9,9-dioxido-9-thia-3-azabicyclo[3.3.1]non-3-en-2-yl)-4-fluorophenyl)-5-chloro-3-methylpicolinamide] | 0.064 | 2780 | 0.015 | – | – | –
COc1cnc(C(=O)Nc2ccc(F)c([C@@]3(C)N=C(N)[C@]4(C)CC[C@H]3S4(=O)=O)c2)cn1 [Example 66, N-(3-((1R,2R,5S)-4-amino-2,5-dimethyl-8,8-dioxido-8-thia-3-azabicyclo[3.2.1]oct-3-en-2-yl)-4-fluorophenyl)-5-methoxy-2-pyrazinecarboxamide] | – | – | – | 0.018 | > 400 | 0.07
COc1cnc(C(=O)Nc2ccc(F)c([C@@]3(C)N=C(N)[C@]4(C)CCC[C@@]3(C)S4(=O)=O)c2)cn1 [Example 16, N-(3-((1R,2R,5S)-4-Amino-1,2,5-trimethyl-9,9-dioxido-9-thia-3-azabicyclo[3.3.1]non-3-en-2-yl)-4-fluorophenyl)-5-methoxypyrazine-2-carboxamide] | 0.016 | 85.2 | 0.02 | – | – | –
CCCOc1cnc2c(Nc3ccc(F)c([C@@]4(C)N=C(N)[C@@]5(C)CC[C@@H]4S5(=O)=O)c3)nccc2n1 [Example 144, N-(3-((1S,2R,5R)-4-amino-2,5-dimethyl-8,8-dioxido-8-thia-3-azabicyclo[3.2.1]oct-3-en-2-yl)-4-fluorophenyl)-2-propoxypyrido[3,4-b]pyrazin-5-amine] | – | – | – | 0.071 | > 400 | 0.004
Cc1cc(OC(F)F)cnc1C(=O)Nc1ccc(F)c([C@@]2(C)N=C(N)[C@]3(C)CCC[C@@]2(F)S3(=O)=O)c1 [Example 10, N-(3-((1R,2R,5S)-4-Amino-1-fluoro-2,5-dimethyl-9,9-dioxido-9-thia-3-azabicyclo[3.3.1]non-3-en-2-yl)-4-fluorophenyl)-5-(difluoromethoxy)-3-methylpicolinamide] | 0.035 | 8.75 | 0.009 | – | – | –
C[C@]1(c2cc(NC(=O)c3ncc(C(F)(F)F)cc3Cl)ccc2F)N=C(N)[C@@]2(CF)CC[C@@H]1S2(=O)=O [Example 108, N-(3-((1S,2R,5R)-4-amino-5-(fluoromethyl)-2-methyl-8,8-dioxido-8-thia-3-azabicyclo[3.2.1]oct-3-en-2-yl)-4-fluorophenyl)-3-chloro-5-(trifluoromethyl)-2-pyridinecarboxamide] | – | – | – | 0.007 | > 400 | 0.008
C[C@]1(c2cc(NC(=O)c3ccc(C#CC4CC4)cn3)ccc2F)N=C(N)[C@@]2(C)CC[C@@H]1S2(=O)=O [Example 64, N-(3-((1S,2R,5R)-4-amino-2,5-dimethyl-8,8-dioxido-8-thia-3-azabicyclo[3.2.1]oct-3-en-2-yl)-4-fluorophenyl)-5-(cyclopropylethynyl)-2-pyridinecarboxamide] | – | – | – | 0.005 | 470 | 0.001
COc1cnc2c(Nc3ccc(F)c([C@@]4(C)N=C(N)[C@]5(C)CC[C@H]4S5(=O)=O)c3)ncnc2c1 [Example 133, N-(3-((1R,2R,5S)-4-amino-2,5-dimethyl-8,8-dioxido-8-thia-3-azabicyclo[3.2.1]oct-3-en-2-yl)-4-fluorophenyl)-7-methoxypyrido[3,2-d]pyrimidin-4-amine] | – | – | – | 0.026 | 1160 | 0.096
